In patent US12371428B2 (Exelixis, Inc., priority 2019, dated 2025):

Legend:
[1] = biological target: Human KDR (residues 790-1356) (Homo sapiens (Human), UniProt P35968); assay: Human KDR kinase assay, HTRF KinEase (Example B-2); assay type: biochemical; conditions: protocol of Example B-2 (other compounds)
Method in brief: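 Human KDR residues 790-1356 (0.1 ng/well) in buffer with 5 mM MgCl2, 1 mM MnCl2, 1 mM DTT, biotinylated peptide substrate, ATP at Km (4.0 μM), 3% DMSO, 10 compound concentrations; 40 min, room temperature. EDTA stop, streptavidin-XL665/Eu-TK antibody HTRF read 665/620 nm; 4-parameter IC50.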

[2] = biological target: Human MER (residues 528-999) (Homo sapiens (Human), UniProt Q12866); assay: Human Mer kinase assay, HTRF KinEase (Example C-2); assay type: biochemical; conditions: protocol of Example C-2 (other compounds)
Human MER (residues 528-999), sequence (Q12866 528-999): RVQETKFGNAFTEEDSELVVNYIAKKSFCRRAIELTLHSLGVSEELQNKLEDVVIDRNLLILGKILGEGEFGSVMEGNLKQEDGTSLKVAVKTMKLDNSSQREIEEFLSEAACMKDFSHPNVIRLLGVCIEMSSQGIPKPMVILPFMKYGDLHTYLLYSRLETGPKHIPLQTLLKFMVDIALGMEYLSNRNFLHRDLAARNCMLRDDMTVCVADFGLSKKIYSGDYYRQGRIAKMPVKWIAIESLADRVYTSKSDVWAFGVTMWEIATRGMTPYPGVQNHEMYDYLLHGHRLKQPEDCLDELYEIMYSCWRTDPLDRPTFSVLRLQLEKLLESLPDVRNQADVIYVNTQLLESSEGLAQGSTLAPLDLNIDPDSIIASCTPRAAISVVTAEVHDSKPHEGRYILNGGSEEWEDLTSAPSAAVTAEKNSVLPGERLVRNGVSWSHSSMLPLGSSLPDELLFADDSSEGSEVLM
Method in brief: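 HTRF KinEase TK assay with MER 528-999 (1 ng/well) in enzymatic buffer plus 5 mM MgCl2 and 1 mM DTT, biotinylated peptide substrate and ATP at Km (40 μM), 3% DMSO final, 60 min at room temperature. Stopped with EDTA detection mix (SA-XL665, TK antibody-Eu3+), read at 665/620 nm after 60 min; IC50 from 10-point 4-parameter fit, normalized to DMSO and 1 μM reference.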

[3] = biological target: Mer (phospho-Mer, MERTK-transfected 293A cells) (Homo sapiens (Human), UniProt Q12866); assay: Mer autophosphorylation ELISA in transient transfected 293A cells (Example H); assay type: cell-based; conditions: cellular activity; Mer autophosphorylation ELISA in transient transfected 293A cells
Mer (phospho-Mer, MERTK-transfected 293A cells), sequence (Q12866 21-999): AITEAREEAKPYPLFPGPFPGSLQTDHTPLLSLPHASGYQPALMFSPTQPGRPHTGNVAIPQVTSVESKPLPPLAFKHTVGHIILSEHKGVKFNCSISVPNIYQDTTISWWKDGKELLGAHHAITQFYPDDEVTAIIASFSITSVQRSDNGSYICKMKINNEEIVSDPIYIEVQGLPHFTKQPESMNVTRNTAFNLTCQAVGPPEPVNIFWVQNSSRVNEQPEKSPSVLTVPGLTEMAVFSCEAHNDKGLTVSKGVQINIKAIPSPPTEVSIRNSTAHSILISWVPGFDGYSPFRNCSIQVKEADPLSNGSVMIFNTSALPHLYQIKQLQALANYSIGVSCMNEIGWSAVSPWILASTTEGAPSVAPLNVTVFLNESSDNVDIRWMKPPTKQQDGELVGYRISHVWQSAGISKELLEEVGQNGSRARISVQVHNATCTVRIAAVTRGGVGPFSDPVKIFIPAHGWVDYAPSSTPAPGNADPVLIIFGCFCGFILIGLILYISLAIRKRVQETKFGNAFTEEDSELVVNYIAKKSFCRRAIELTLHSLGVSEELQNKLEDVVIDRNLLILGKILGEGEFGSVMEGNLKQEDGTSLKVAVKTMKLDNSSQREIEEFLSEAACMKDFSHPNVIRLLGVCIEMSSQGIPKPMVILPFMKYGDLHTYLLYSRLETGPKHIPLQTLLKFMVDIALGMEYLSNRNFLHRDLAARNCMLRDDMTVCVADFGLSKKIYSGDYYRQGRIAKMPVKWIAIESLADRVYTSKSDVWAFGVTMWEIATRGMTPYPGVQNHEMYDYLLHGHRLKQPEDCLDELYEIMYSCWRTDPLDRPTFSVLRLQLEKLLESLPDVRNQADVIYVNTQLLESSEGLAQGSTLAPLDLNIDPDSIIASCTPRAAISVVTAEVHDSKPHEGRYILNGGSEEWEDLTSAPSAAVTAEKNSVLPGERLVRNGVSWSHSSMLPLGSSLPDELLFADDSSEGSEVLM
Method in brief: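 Human MERTK transiently transfected into 293A cells; compounds as 8-point dose curve in serum-free medium (0.3% DMSO final), 1 h. Lysates assayed by phospho-Mer sandwich ELISA against phospho-Mer standard; DMSO = 100%, reference inhibitor = 0% activity; IC50 from 4-parameter logistic fit.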

Human KDR (residues 790-1356), sequence (P35968 790-1356): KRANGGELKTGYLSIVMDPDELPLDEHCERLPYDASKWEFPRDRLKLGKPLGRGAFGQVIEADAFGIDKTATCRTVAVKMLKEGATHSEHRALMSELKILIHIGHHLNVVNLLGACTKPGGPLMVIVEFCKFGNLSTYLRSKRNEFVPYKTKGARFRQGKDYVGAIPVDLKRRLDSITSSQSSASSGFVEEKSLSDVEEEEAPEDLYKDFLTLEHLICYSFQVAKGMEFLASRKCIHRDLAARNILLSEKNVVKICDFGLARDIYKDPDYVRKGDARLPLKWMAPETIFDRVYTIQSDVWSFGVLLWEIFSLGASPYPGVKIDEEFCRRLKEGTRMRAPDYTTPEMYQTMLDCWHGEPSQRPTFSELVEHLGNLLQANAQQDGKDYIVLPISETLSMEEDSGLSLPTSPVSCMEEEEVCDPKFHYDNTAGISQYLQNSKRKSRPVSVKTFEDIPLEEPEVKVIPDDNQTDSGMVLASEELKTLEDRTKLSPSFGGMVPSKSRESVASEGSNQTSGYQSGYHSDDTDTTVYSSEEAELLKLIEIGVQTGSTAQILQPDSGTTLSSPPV

Compound	IC50 [1] [nM]	IC50 [2] [nM]	IC50 [3] [nM]
COc1cc2nccc(Oc3ccc(NC(=O)c4cn(C)c(C)c(-c5ccc(F)cc5)c4=O)cc3)c2nc1OC [Compound 65, N-[4-[(6,7-Dimethoxy-1,5-naphthyridin-4-yl)oxy]phenyl]-5-(4-fluorophenyl)-1,6-dimethyl-4-oxopyridine-3-carboxamide]	< 100	< 100	< 100
COc1cc2nccc(Oc3ccc(NC(=O)c4cn(C)c(C)c(-c5ccc(F)cc5)c4=O)cc3F)c2nc1OC [Compound 58, N-[4-[(6,7-Dimethoxy-1,5-naphthyridin-4-yl)oxy]-3-fluorophenyl]-5-(4-fluorophenyl)-1,6-dimethyl-4-oxopyridine-3-carboxamide]	< 100	< 100	< 100
COc1nc2c(Oc3ccc(NC(=O)c4c(C)nc(C)c(-c5ccc(F)cc5)c4O)cc3F)ccnc2cc1O [Compound 431, N-[3-fluoro-4-[(7-hydroxy-6-methoxy-1,5-naphthyridin-4-yl)oxy]phenyl]-5-(4-fluorophenyl)-4-hydroxy-2,6-dimethylpyridine-3-carboxamide]	< 100	< 100	< 100
COc1cc2nccc(Oc3ccc(NC(=O)c4cn(C)c(C#N)c(-c5ccc(F)cc5)c4=O)cc3F)c2nc1OC [Compound 77, 6-Cyano-N-[4-[(6,7-dimethoxy-1,5-naphthyridin-4-yl)oxy]-3-fluorophenyl]-5-(4-fluorophenyl)-1-methyl-4-oxopyridine-3-carboxamide]	> 300	< 100	< 100
COCCOc1nc2c(Oc3ccc(NC(=O)c4cnc(C)c(-c5ccc(F)cc5)c4O)cc3)ccnc2cc1C [Compound 437, 5-(4-fluorophenyl)-4-hydroxy-N-[4-[[6-(2-methoxyethoxy)-7-methyl-1,5-naphthyridin-4-yl]oxy]phenyl]-6-methylpyridine-3-carboxamide]	< 100	< 100	< 100
COc1cc2nccc(Oc3ccc(NC(=O)c4cn(C)c(CF)c(-c5ccc(F)cc5)c4=O)cc3F)c2nc1OC [Compound 73, N-[4-[(6,7-Dimethoxy-1,5-naphthyridin-4-yl)oxy]-3-fluorophenyl]-6-(fluoromethyl)-5-(4-fluorophenyl)-1-methyl-4-oxopyridine-3-carboxamide]	100 to 300	< 100	< 100
COc1cc2nccc(Oc3ccc(NC(=O)c4cc(C#N)c(C)n(-c5ccc(F)cc5)c4=O)cc3F)c2nc1OC [Compound 87, 5-Cyano-N-[4-[(6,7-dimethoxy-1,5-naphthyridin-4-yl)oxy]-3-fluorophenyl]-1-(4-fluorophenyl)-6-methyl-2-oxopyridine-3-carboxamide]	> 300	< 100	< 100
COc1cc2nccc(Oc3ccc(NC(=O)c4cnc(C)c(-c5ccc(F)cc5)c4O)cc3F)c2nc1OCCCN1CCOCC1 [Compound 424, N-[3-fluoro-4-[[7-methoxy-6-(3-morpholin-4-ylpropoxy)-1,5-naphthyridin-4-yl]oxy]phenyl]-5-(4-fluorophenyl)-4-hydroxy-6-methylpyridine-3-carboxamide]	< 100	< 100	< 100
COc1cc2nccc(Oc3ccc(NC(=O)c4nn(C)c(C)c(-c5ccc(F)cc5)c4=O)cc3F)c2nc1OC [Compound 92, N-[4-[(6,7-Dimethoxy-1,5-naphthyridin-4-yl)oxy]-3-fluorophenyl]-5-(4-fluorophenyl)-1,6-dimethyl-4-oxopyridazine-3-carboxamide]	100 to 300	< 100	< 100
COc1ccc2nccc(Oc3ccc(NC(=O)c4ccc(C)n(-c5ccc(F)cc5C)c4=O)cc3F)c2n1 [Compound 85, N-[3-Fluoro-4-[(6-methoxy-1,5-naphthyridin-4-yl)oxy]phenyl]-1-(4-fluoro-2-methylphenyl)-6-methyl-2-oxopyridine-3-carboxamide]	> 300	< 100	< 100
COc1cc2nccc(Oc3ccc(NC(=O)c4cn(-c5cnn(C(F)F)c5)cc(-c5ccc(F)cc5)c4=O)cc3F)c2nc1OC [Compound 60, 1-[1-(Difluoromethyl)pyrazol-4-yl]-N-[4-[(6,7-dimethoxy-1,5-naphthyridin-4-yl)oxy]-3-fluorophenyl]-5-(4-fluorophenyl)-4-oxopyridine-3-carboxamide]	> 300	< 100	< 100
CNc1c(-c2ccc(F)cc2)c(=O)c(C(=O)Nc2ccc(Oc3ccnc4cc(OC)c(OC)nc34)c(F)c2)cn1C [Compound 76, N-[4-[(6,7-Dimethoxy-1,5-naphthyridin-4-yl)oxy]-3-fluorophenyl]-5-(4-fluorophenyl)-1-methyl-6-(methylamino)-4-oxopyridine-3-carboxamide]	< 100	< 100	< 100
Cc1cc(F)ccc1-c1c(C)n(C)cc(C(=O)Nc2ccc(Oc3ccnc4cc(C)c(F)nc34)c(F)c2)c1=O [Compound 429, N-[3-fluoro-4-[(6-fluoro-7-methyl-1,5-naphthyridin-4-yl)oxy]phenyl]-5-(4-fluoro-2-methylphenyl)-1,6-dimethyl-4-oxopyridine-3-carboxamide]	> 300	< 100	< 100

Now from value to compound:

IC50 [1] [nM]	IC50 [2] [nM]	IC50 [3] [nM]	Compound
100 to 300	< 100	< 100	COc1cc2nccc(Oc3ccc(NC(=O)c4cn(C)c(C)c(-c5ccc(F)cc5C)c4=O)cc3F)c2nc1OC [Compound 75, N-[4-[(6,7-Dimethoxy-1,5-naphthyridin-4-yl)oxy]-3-fluorophenyl]-5-(4-fluoro-2-methylphenyl)-1,6-dimethyl-4-oxopyridine-3-carboxamide]
< 100	< 100	< 100	COCCOc1nc2c(Oc3ccc(NC(=O)c4cnc(C)c(-c5ccc(F)cc5)c4O)cc3F)ccnc2cc1OC [Compound 68, N-[3-Fluoro-4-[[7-methoxy-6-(2-methoxyethoxy)-1,5-naphthyridin-4-yl]oxy]phenyl]-5-(4-fluorophenyl)-4-hydroxy-6-methylpyridine-3-carboxamide]
100 to 300	< 100	< 100	CCc1cc2nccc(Oc3ccc(NC(=O)c4cnc(C)c(-c5ccc(F)cc5)c4O)cc3F)c2nc1OC [Compound 420, N-[4-[(7-ethyl-6-methoxy-1,5-naphthyridin-4-yl)oxy]-3-fluorophenyl]-5-(4-fluorophenyl)-4-hydroxy-6-methylpyridine-3-carboxamide]
< 100	< 100	< 100	COc1cc2nccc(Oc3ccc(NC(=O)c4cnc(C)c(-c5ccc(F)cc5C)c4O)cc3F)c2nc1OC [Compound 69, N-[4-[(6,7-Dimethoxy-1,5-naphthyridin-4-yl)oxy]-3-fluorophenyl]-5-(4-fluoro-2-methylphenyl)-4-hydroxy-6-methylpyridine-3-carboxamide]
< 100	< 100	< 100	COCCOc1cc2nccc(Oc3ccc(NC(=O)c4c(C)nc(C)c(-c5ccc(F)cc5)c4O)cc3F)c2nc1OC [Compound 432, N-[3-fluoro-4-[[6-methoxy-7-(2-methoxyethoxy)-1,5-naphthyridin-4-yl]oxy]phenyl]-5-(4-fluorophenyl)-4-hydroxy-2,6-dimethylpyridine-3-carboxamide]
> 300	< 100	< 100	COc1cc2nccc(Oc3ccc(NC(=O)c4cnc(C)c(-c5ccc(F)cc5C)c4O)cc3F)c2nc1OC(C)C [Compound 416, N-[3-fluoro-4-[(7-methoxy-6-propan-2-yloxy-1,5-naphthyridin-4-yl)oxy]phenyl]-5-(4-fluoro-2-methylphenyl)-4-hydroxy-6-methylpyridine-3-carboxamide]
< 100	< 100	< 100	COc1cc2nccc(Oc3ccc(NC(=O)c4cnc(C)c(-c5ccc(F)cc5C)c4O)cc3F)c2nc1OCCCN1CCOCC1 [Compound 425, N-[3-fluoro-4-[[7-methoxy-6-(3-morpholin-4-ylpropoxy)-1,5-naphthyridin-4-yl]oxy]phenyl]-5-(4-fluoro-2-methylphenyl)-4-hydroxy-6-methylpyridine-3-carboxamide]
< 100	< 100	< 100	COc1cc2nccc(Oc3ccc(NC(=O)c4n[nH]c(C)c(-c5ccc(F)cc5C)c4=O)cc3F)c2nc1OC [Compound 90, N-[4-[(6,7-Dimethoxy-1,5-naphthyridin-4-yl)oxy]-3-fluorophenyl]-5-(4-fluoro-2-methylphenyl)-6-methyl-4-oxo-1H-pyridazine-3-carboxamide]
100 to 300	< 100	< 100	COc1ccc2nccc(Oc3ccc(NC(=O)c4c(C)nc(C)c(-c5ccc(F)cc5C)c4O)cc3F)c2n1 [Compound 70, N-[3-Fluoro-4-[(6-methoxy-1,5-naphthyridin-4-yl)oxy]phenyl]-5-(4-fluoro-2-methylphenyl)-4-hydroxy-2,6-dimethylpyridine-3-carboxamide]
